# How the values were obtained:
# [1] = log P by HPLC on reversed phase columns (EEC directive 79/831 Annex V.A8); type: physicochemical
# Protocol: Calibration was done with not branched alkan2-ones (with 3 to 16 carbon atoms) with known log P-values (measurement of log P values using retention times with linear interpolation between successive alkanones). lambda-maX-values were determined using UV-spectra from 200 nm to 400 nm and the peak values of the chromatographic signals.
# [2] = tested on: fall armyworm larvae (Spodoptera frugiperda); assay: Spodoptera frugiperda test (SPODFR spray application); type: in vivo; settings: application rate 500 g/ha; after 7 days
# Protocol: To produce a suitable preparation of the active compound, 1 part by weight of active compound is mixed with the stated amount of solvent and emulsifier, and the concentrate is diluted with emulsifier-containing water to the desired concentration. Maize (Zea mais) leaf sections are sprayed with a preparation of the active ingredient of the desired concentration. Once dry, the leaf sections are infested with fall armyworm larvae (Spodoptera frugiperda). After 7 days mortality in % is determined. 100% means that all caterpillars have been killed and 0% means that none of the caterpillars have been killed.
# [3] = tested on: mustard beetle larvae (Phaedon cochleariae); assay: Phaedon cochleariae test (PHAECO spray application); type: in vivo; settings: application rate 500 g/ha; after 7 days
# Protocol: To produce a suitable preparation of active compound, 1 part by weight of active compound is mixed with the stated amount of solvent and emulsifier, and the concentrate is diluted with emulsifier-containing water to the desired concentration. Chinese cabbage (Brassica pekinesis) leaf-disks are sprayed with a preparation of the active ingredient of the desired concentration. Once dry, the leaf disks are infested with mustard beetle larvae (Phaedon cochleariae). After 7 days mortality in % is determined. 100% means that all beetle larvae have been killed and 0% means that none of the beetle larvae have been killed.
# [4] = tested on: Two-Spotted Spider Mite (Tetranychus urticae); assay: Two-spotted spider mite (Tetranychus urticae) spray test on kidney bean; type: in vivo; settings: Tetranychus urticae, 168 h, after 7 days, read-out: acaricidal activity; for pest or weed control at 20 ppm: active compound concentration 20 ppm
# Summary of the method: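 Kidney bean plants at the two-leaf stage carried 50-100 adult mites and were sprayed one day later with compound in DMF/polyoxyethylene alkyl phenyl ether diluted in water. Ammonium salt and penetration enhancer at 1000 ppm were added if needed. Acaricidal activity (% mites killed) was scored after 7 days in a greenhouse.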
# [5] = tested on: Larvae of Spodoptera litura; assay: Larvae of Spodoptera litura, method using artificial feeds; type: in vivo; settings: Spodoptera litura, 168 h, artificial feed, after 7 days, read-out: insecticidal activity (pesticidal ratio); for pest or weed control at 4 ppm: active compound concentration 4 ppm; for pest or weed control at 20 ppm: active compound concentration 20 ppm
# Summary of the method: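 Compound formulated in dimethylformamide with polyoxyethylene alkyl phenyl ether emulsifier, water-diluted and poured onto artificial diet. Five 3rd-instar Spodoptera litura larvae per cup, held at 25° C and 50-60% humidity. Mortality after 7 days expressed as pesticidal ratio.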
# [6] = tested on: adult engorged female Boophilus microplus ticks; assay: Test against Boophilus microplus (dip); type: in vivo; settings: Rhipicephalus microplus, 168 h, read-out: activity (mortality)
# Protocol: (§1) Solvent: dimethyl sulfoxide
# To produce a suitable preparation of active compound, 10 mg of active compound are dissolved in 0.5 ml solvent, and the concentrate is diluted with water to the desired concentration. Eight to ten adult engorged female Boophilus microplus ticks are placed in perforated plastic beakers and immersed in aqueous compound solution for one minute. Ticks are transferred to a filter paper in a plastic tray. Egg deposition of fertile eggs is monitored after. After 7 days mortality in % is determined. 100% means that all the ticks have been killed; 0% means that none of the ticks have been killed.
# [7] = tested on: Cucurbit Leaf Beetle (Aulacophora femoralis); assay: Cucurbit leaf beetle (Aulacophora femoralis) cucumber leaf dip test; type: in vivo; settings: after 7 days; for pest or weed control at 4 ppm / pest or weed control at 20 ppm: Aulacophora, foliar, 168 h, read-out: insecticidal activity; for pest or weed control at 4 ppm: active compound concentration 4 ppm
# Summary of the method: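 Cucumber leaves dipped in compound formulated with DMF and polyoxyethylene alkyl phenyl ether, diluted in water, with ammonium salt or ammonium salt plus penetration enhancer at 1000 ppm added if necessary; dried leaves placed on sterilized soil with five second-instar larvae. Kept at 25° C; larval mortality counted after 7 days.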
# Musca domestica = assay: Test against Musca domestica; type: in vivo; settings: Musca domestica, 48 h, read-out: activity (mortality)
# Protocol: as §1
# To produce a suitable preparation of active compound, 10 mg of active compound are dissolved in 0.5 ml solvent, and the concentrate is diluted with water to the desired concentration. Prior to the assay, a piece of kitchen sponge is soaked with a mixture of sugar and compound solution and placed into a container. 10 adults (Musca domestica) are placed into the container and closed with a perforated lid. After 2 days mortality in % is determined. 100% means that all the flies have been killed; 0% means that none of the flies have been killed.
# Ctenocephalides felis = assay: Test against Ctenocephalides felis (CTECFE), blood feeding; type: in vivo; settings: Ctenocephalides felis, in Bos taurus, 48 h, read-out: activity (mortality)
# Thrips palmi = Thrips palmi spray test (THRIPL); type: in vivo; settings: active compound concentration 20 ppm; after 6 days
# Summary of the method: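 Cucumber seedlings sprayed with compound formulated in DMF/polyoxyethylene alkyl phenyl ether and diluted in water, ammonium salt ± penetration enhancer at 1000 ppm added if needed. About 100 T. palmi eggs attached, plants held caged at 100% humidity, 23 °C. Percent activity scored from feeding damage after 6 days, 100 = no damage, 0 = as untreated.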
# [8] = tested on: Lucilia cuprina 1st instar larvae; assay: Test against Lucilia cuprina larvae; type: in vivo; settings: 48 h, read-out: activity (larval mortality)
# Protocol: as §1
# 10 mg active compound are dissolve in 0.5 mL dimethyl sulfoxide. Serial dilutions are made to obtain the desired rates.
# Approximately 20 Lucilia cuprina 1st instar larvae are transferred into a test tube containing 1 cm^3 of minced horse meat and 0.5 ml aqueous dilution of test compound. After 48 hrs percentage of larval mortality are recorded. 100% efficacy=all larvae are killed, […].
# [9] = tested on: Tobacco Cutworm (Spodoptera litura) Larvae; assay: Tobacco cutworm (Spodoptera litura) larvae, sweet potato leaf dip test; type: in vivo; settings: active compound concentration 20 ppm; dead larvae after 7 days
# Summary of the method: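 Sweet potato leaves were dipped in DMF/emulsifier test solution at the set concentration and air-dried. Ten third-instar S. litura larvae were placed per dish at 25 °C, with fresh leaves added on days 2 and 4. Mortality was counted on day 7, given as % insecticidal activity averaged over two dishes.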
# [10] = tested on: two spotted spidermite (Tetranychus urticae), OP-resistant; assay: Tetranychus urticae test, OP-resistant (TETRUR spray application); type: in vivo; settings: application rate 500 g/ha; after 6 days
# Protocol: To produce a suitable preparation of active compound, 1 part by weight of active compound is mixed with the stated amount of solvent and emulsifier, and the concentrate is diluted with emulsifier-containing water to the desired concentration. French beans (Phaseolus vulgaris) which are heavily infested with all stages of the two spotted spidermite (Tetranychus urticae), are sprayed with a preparation of the active ingredient at the desired concentration. After 6 days mortality in % is determined. 100% means that all spider mites have been killed and 0% means that none of the spider mites have been killed.
# [11] = active compound concentration 20 ppm
SMILES,activity (mortality) [2],activity (mortality) [3],mortality at 100 ppm (Musca domestica),mortality at 100 ppm (Ctenocephalides felis),mortality at 100 ppm [8],pest or weed control at 20 ppm [4],pest or weed control at 20 ppm [5],"pest or weed control at 20 ppm [7, 11]",insecticidal activity [9],activity (mortality) [10],further results
Cc1cc(N2CCC(c3cc(Cl)cc(Cl)c3)(C(F)(F)F)C2O)ccc1CNC(=O)C1CC1 (mixture of isomers) [A1-77],100%,100%,–,–,–,–,–,–,–,–,log P [1]: 3.91
"O=C(NCc1ccc(N2CCC(c3cc(Cl)cc(Cl)c3F)(C(F)(F)F)C2O)cc1C(F)(F)F)C1CC1 (centres unmarked) [A1-409, N-{4-[3-(3,5-dichloro-2-fluorophenyl)-2-hydroxy-3-(trifluoromethyl)pyrrolidin-1-yl]-2-(trifluoromethyl)benzyl}cyclopropanecarboxamide]",–,–,100%,100%,100%,–,–,–,–,–,pest or weed control at 4 ppm ([4]; active compound concentration 4 ppm): 100%; pest or weed control at 4 ppm [5]: 100%; mortality at 100 ppm [6]: 90%; pest or weed control at 4 ppm [7]: 100%; insecticidal activity (by feeding damage degree) (Thrips palmi): 98%
"O=C(NCc1cnc(N2CCC(c3cc(C(F)(F)F)cc(C(F)(F)F)c3)(C(F)(F)F)C2O)cc1C(F)(F)F)C1CC1 (centres unmarked) [A5-27, N-{[6-{3-[3,5-bis(trifluoromethyl)phenyl]-2-hydroxy-3-(trifluoromethyl)pyrrolidin-1-yl}-4-(trifluoromethyl)pyridin-3-yl]methyl}cyclopropanecarboxamide]",–,–,100%,100%,100%,100%,100%,100%,–,–,pest or weed control at 4 ppm [5]: 100%; mortality at 100 ppm [6]: 100%; pest or weed control at 4 ppm [7]: 100%; insecticidal activity (by feeding damage degree) (Thrips palmi): 90%
"CCC(=O)NCc1ccc(N2CC(c3cc(Cl)c(Cl)c(Cl)c3)(C(F)(F)F)CC2=O)cc1C(F)(F)F (centres unmarked) [C1-46, N-{4-[2-oxo-4-(3,4,5-trichlorophenyl)-4-(trifluoromethyl)pyrrolidin-1-yl]-2-(trifluoromethyl)benzyl}propanamide]",–,–,–,100%,100%,100%,100%,–,100%,–,–
"CCC(=O)NCc1ccc(N2CCC(c3cc(Cl)cc(Cl)c3)(C(F)(F)F)C2O)cc1C(F)(F)F (centres unmarked) [A1-35, N-{4-[3-(3,5-dichlorophenyl)-2-hydroxy-3-(trifluoromethyl)pyrrolidin-1-yl]-2-(trifluoromethyl)benzyl}propanamide]",–,–,–,100%,100%,100%,100%,100%,–,–,mortality at 20 ppm [6]: 100%
"CCC(=O)NCc1ccc(N2CCC(c3cc(Cl)c(Cl)c(Cl)c3)(C(F)(F)F)C2O)nc1C(F)(F)F (centres unmarked) [A3-13, N-({6-[2-hydroxy-3-(3,4,5-trichlorophenyl)-3-(trifluoromethyl)-pyrrolidin-1-yl]-2-(trifluoromethyl)pyridin-3-yl}methyl)propanamide]",–,–,100%,100%,100%,100%,100%,100%,100%,–,mortality at 20 ppm [6]: 100%
Cc1cc(N2CCC(c3cc(Cl)cc(Cl)c3)(C(F)(F)F)C2O)ccc1CNC(=O)CC(F)(F)F (mixture of isomers) [A1-79],83%,100%,–,–,–,–,–,–,–,90%,log P [1]: 4.09
O=C(NCc1cc(F)c(N2CCC(c3cc(Cl)cc(Cl)c3)(C(F)(F)F)C2O)nc1Cl)C1CC1 (centres unmarked) [A3-359],100%,100%,–,–,–,–,–,–,–,100%,–
"O=C(NCc1ccc(N2CCC(c3cc(C(F)(F)F)cc(C(F)(F)F)c3)(C(F)(F)F)C2O)cc1Cl)C1CC1 (centres unmarked) [A1-27, N-(4-{3-[3,5-bis(trifluoromethyl)phenyl]-2-hydroxy-3-(trifluoromethyl)pyrrolidin-1-yl}-2-chlorobenzyl)cyclopropanecarboxamide]",–,–,100%,100%,100%,100%,100%,100%,100%,–,–
CCC(=O)NCc1cc(F)c(N2CCC(c3cc(Cl)cc(Cl)c3)(C(F)(F)F)C2O)nc1Cl (centres unmarked) [A3-356],100%,100%,–,–,–,–,–,–,–,100%,"logP ([1]; HPLC on reversed phase columns): 3.86; insecticidal activity [7, 11]: 100%"

# From US9375000B2, “Pesticidal arylpyrrolidines” (Bayer Intellectual Property GmbH, priority 2011, dated 2016)
